The values below come from article PMC7318222, “A Family of Water‐Immiscible, Dipolar Aprotic, Diamide Solvents from Succinic Acid” (Chemsuschem, 2020).

Data set [1] in a line: Miscibility with water. The class given is physicochemical. The note with it: this work.
Data set [2] addresses T1, ERα (Homo sapiens, UniProt P03372).
T1 construct: expression construct for the full-length human receptor under investigation; expressed in transfected cells; host or cells: human U2-OS cells (ATCC HTB-96), stably transfected
T1 sequence (P03372 1-595): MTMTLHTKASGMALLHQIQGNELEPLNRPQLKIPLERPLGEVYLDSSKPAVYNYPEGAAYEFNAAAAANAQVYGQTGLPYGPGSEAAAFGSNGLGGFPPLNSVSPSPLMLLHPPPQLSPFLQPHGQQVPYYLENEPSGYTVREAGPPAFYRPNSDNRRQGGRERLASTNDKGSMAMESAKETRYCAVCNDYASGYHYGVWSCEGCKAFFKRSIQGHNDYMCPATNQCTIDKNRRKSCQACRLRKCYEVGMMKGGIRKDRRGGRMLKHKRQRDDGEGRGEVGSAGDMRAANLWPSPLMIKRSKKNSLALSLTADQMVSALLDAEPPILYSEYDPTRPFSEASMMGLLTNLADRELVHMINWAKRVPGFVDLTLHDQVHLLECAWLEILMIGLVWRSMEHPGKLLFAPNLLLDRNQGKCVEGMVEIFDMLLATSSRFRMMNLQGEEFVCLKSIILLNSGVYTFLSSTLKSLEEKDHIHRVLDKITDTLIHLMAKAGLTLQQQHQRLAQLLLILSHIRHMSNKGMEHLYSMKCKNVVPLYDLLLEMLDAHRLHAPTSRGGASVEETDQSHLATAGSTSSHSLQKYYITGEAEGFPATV
Nature of the data set: ERα CALUX reporter gene assay. The class given is cell-based. Details: key: –: no effect observed up to the highest test concentration. Conditions: PC10, 24 h exposure. The text has this:
Toluene ≥99.0%, hexane ≥99.5%,
DCM ≥99.5%, chloroform ≥99.5%, DMSO ≥99.0% were purchased from VWR. N,N-diethyl-4-nitroaniline ≥98.0% was purchased from Alfa Aeser. Cyrene was supplied by Circa group. N-butylpyrrolidinone was supplied by Eastman chemicals. N,N-dimethylformamide 99.9% and N,N-dimethylacetamide 99.9% were purchased from Fischer. The flakes of Ultrason® E3020 P Polyarylethersulfone of 55,000 Da were obtained from INGE.BASF, Germany. The CALUX cell lines have been described previously.[1] They are based on human U2-OS cells (ATCC, HTB-96) stably transfected with an expression construct for the full-length human receptor under investigation, and a reporter construct consisting of multimerized responsive elements for the cognate receptor coupled to a minimal promoter element (TATA) and a luciferase gene. Cells were maintained as described previously,[2] using cell culture media and supplements from Fisher Scientific as described in the experimental procedures section. […]
In vitro reporter gene assays
The automated CALUX assays were carried out similarly as described earlier,[12] with some adaptations. In brief, the assay was performed in CO2 independent medium (Fisher Scientific, […]
supplement (Fisher Scientific, 11574466), 10 U/mL penicillin and 10 µg/mL streptomycin. A cell suspension in assay medium was made of 1 × 10^5cells/mL, and white 384-wells plates were seeded with 30 µl cell suspension/well. After 24 h, exposure medium was prepared. A dilution series in 0.5log unit increments of each test compound (in DMSO) was added to a 96-wells plate containing assay medium (2% v/v). Of this exposure mixture, 30 µl was added to the assay plates containing the CALUX cells, resulting in a final DMSO concentration of 1%. Additionally, DMSO blanks and a full dose response curve of the relevant reference compound were included on each plate. All samples were tested in triplicate. The preparation of the compound dilution series as well as the exposure of the cells were performed on a Hamilton StarLET liquid handling robot coupled to a Cytomat incubator.
Directly after exposure, plates were sealed with non-breathing plate seals (Plate sealer, easy seal transparent; Greiner-Bio-One, 676001). After 24 h the exposure medium was removed using an EL406 washer-dispenser (BioTek) and 10 µl/well triton lysisbuffer was added by the EL406.
Subsequently, the luciferase signal was measured in a luminometer (InfinitePro coupled to a Connect Stacker, both TECAN). In order to be able to detect receptor antagonism, several assays were also performed in antagonistic mode. The assay procedure was as described above, with the only exception that the EC50 concentration of the reference agonist was present during the exposure.
The luminometer data was analysed as follows; the average of the triplicate wells was determined, and the average blank (DMSO) value was subtracted. For receptor-based assays the maximum response elicited by the reference compound was set to 100% (full receptor- or pathway activation), and the other values were scaled accordingly. […] For antagonist- and cytotoxicity experiments, PC20 values were determined instead, which was defined as the concentration where the test compound causes a 20% decrease in the basal signal, which was […]
curve, the signal induction above background (DMSO) was determined, and the concentration where the compound elicited a 1.5-fold increase above background was used as LEC.
(In general: In a reporter assay the amount or activity of a reporter protein is the signal.)

Entries after “also recorded” stand apart in the source; their conditions may differ.

For the compound `CCCCN(CCCC)C(=O)CCC(=O)N(CCCC)CCCC` [TBSA, N,N,N′,N′‐tetrabutylsuccindiamide], in data set [1], the Water misc. entry was “no^[a]”. For the same compound, the “LEC ERα” value in data set [2] was “–”.

With `CCCCN1CCCC1=O` [NBP, N‐Butylpyrrolidinone, reference compound], the Water misc. result in data set [1] is “miscible; also recorded: yes^[a]”. In addition, in data set [2], the “LEC ERα” value is “–”.

For `CN1CCCC1=O` [NMP, N‐methyl‐2‐pyrrolidone, reference compound], in data set [1], the Water misc. entry is “yes^[a]”. The “LEC ERα” value in data set [2] was “–”.

On to `CCCCN(CC)C(=O)CCC(=O)N(CC)CCCC` [EBSA, N,N′‐diethyl‐N,N′‐dibutylsuccindiamide], for which, in data set [1], the Water misc. result is “no^[a]”. Besides, the “LEC ERα” value in data set [2] was “–”.

For `CCCCN(C)C(=O)CCC(=O)N(C)CCCC` [MBSA, N,N′‐dimethyl‐N,N′‐dibutylsuccindiamide], the Water misc. entry in data set [1] is “no^[a]”. In data set [2], the “LEC ERα” value is “–”.
